We go through four compounds from US8722849B2, “Polypeptides” (Novo Nordisk A/S, priority 2011, dated 2014).

Values after ≈ are worked out from the molar mass of the structure shown. Like-named read-outs stand apart in the source and are kept apart here. Starred links: 1 amine or outer side, 2 acyl side, 3 side chain; linkers in the order of their positions; H or OH if unused. Positions of bridges follow the written chain, without caps; N, C: chain ends. Residues, ends and D or L forms follow the SMILES beside them. Groups on a side chain read outwards from the residue. *: point of attachment. C20 diacid = O=C(O)CCCCCCCCCCCCCCCCCCC(=O)*; γGlu = O=C(O)[C@H](CCC(=O)[*:2])N[*:1]; AEEA = NCCOCCOCC(=O)O

A short description of the data set: Assay (IV) determination of solubility. The data set is classed as physicochemical. How it is done: ASSAY (IV)—Determination of Solubility
The polypeptide was dissolved in water at ˜500 nmol/ml and mixed 1:1 with a series of buffers (100 mM glycylglycine pH 3.0, 100 mM glycylglycine pH 4.0, 100 mM glycylglycine pH 5.0, 100 mM bistrispropane pH 6.0, 100 mM bistrispropane pH 6.5, 100 mM bistrispropane pH 7.0, 100 mM bistrispropane pH 7.5, 100 mM bistrispropane pH 8.0). After 18 hours at room temperature the samples were centrifuged and the polypeptide concentration determined by HPLC.

The mark [1] stands for this setting: pH 3, pH 3.0, read-out: Solubility pH 3.0.
Where [2] appears, read: pH 4, pH 4.0, read-out: Solubility pH 4.0.
[3] abbreviates: pH 5, pH 5.0, read-out: Solubility pH 5.0.
Where [4] appears, read: pH 6, pH 6.0, read-out: Solubility pH 6.0.
The mark [5] stands for this setting: pH 6.5, pH 6.5, read-out: Solubility pH 6.5.
The mark [6] stands for this setting: pH 7, pH 7.0, read-out: Solubility pH 7.0.
The mark [7] stands for this setting: pH 7.5, pH 7.5, read-out: Solubility pH 7.5.
The mark [8] stands for this setting: pH 4, pH 4.0, 18 hours at room temperature, Table 2, read-out: Solubility pH 4.0.
[9] abbreviates: pH 7, pH 7.0, 18 hours at room temperature, Table 3, read-out: Solubility pH 7.0.
The mark [10] stands for this setting: pH 8, pH 8.0, read-out: Solubility pH 8.0.

Consider `CC[C@H](C)[C@H](NC(=O)[C@@H]1CCCN1C(=O)CNC(=O)[C@H](Cc1ccccc1)NC(=O)[C@H](CC(N)=O)NC(=O)[C@H](CCCCNC(=O)COCCOCCNC(=O)COCCOCCNC(=O)CC[C@H](NC(=O)CCCCCCCCCCCCCCCCCCC(=O)O)C(=O)O)NC(=O)[C@H](CO)NC(=O)[C@H](CO)NC(=O)[C@H](Cc1c[nH]cn1)NC(=O)[C@H](Cc1c[nH]cn1)NC(=O)[C@H](CC(C)C)NC(=O)[C@H](Cc1ccccc1)NC(=O)[C@H](CC(N)=O)NC(=O)[C@H](C)NC(=O)[C@H](CC(C)C)NC(=O)[C@H](CCCNC(=N)N)NC(=O)[C@H](CCC(N)=O)NC(=O)[C@@H](NC(=O)[C@H](C)NC(=O)[C@@H]1CSSC[C@H](NC(=O)[C@@H](N)CCCCN)C(=O)N[C@@H](CC(N)=O)C(=O)N[C@@H]([C@@H](C)O)C(=O)N[C@@H](C)C(=O)N[C@@H]([C@@H](C)O)C(=O)N1)[C@@H](C)O)C(=O)N[C@@H](CC(C)C)C(=O)N[C@@H](CO)C(=O)N1CCC[C@H]1C(=O)N[C@H](C(=O)N[C@@H](CC(N)=O)C(=O)N[C@H](C(=O)NCC(=O)N[C@@H](CO)C(=O)N[C@@H](Cc1c[nH]cn1)C(=O)N[C@H](C(=O)N[C@@H](Cc1ccc(O)cc1)C(N)=O)[C@@H](C)O)C(C)C)[C@@H](C)O` [Example 141, N-epsilon21-[2-(2-{2-[2-(2-{2-[(S)-4-Carboxy-4-(19-carboxyheptadecanoylamino)butyrylamino]ethoxy}ethoxy)acetylamino]ethoxy}ethoxy)acetyl]-[His17,Lys21,Ser28,His35]-pramlintide] (H-KCNTATCATQRLANFLHHSSK([AEEA-AEEA-γGlu-C20 diacid])NFGPILSPTNVGSHTY-NH2; disulfide 2-7), for which the solubility by setting is: under setting [1], greater than 200 µM; under setting [2], greater than 200 µM; under setting [3], greater than 200 µM; under setting [4], 84 µM (≈ 400 µg/mL); under setting [5], 3 µM (≈ 14.3 µg/mL); under setting [6], 2 µM (≈ 9.52 µg/mL). In addition, the solubility under setting [7] was 1 µM (≈ 4.76 µg/mL).
Regarding `CC[C@H](C)[C@H](NC(=O)[C@@H]1CCCN1C(=O)CNC(=O)[C@H](Cc1ccccc1)NC(=O)[C@H](CC(N)=O)NC(=O)[C@H](CCCCNC(=O)COCCOCCNC(=O)COCCOCCNC(=O)CC[C@H](NC(=O)CCCCCCCCCCCCCCCCCCC(=O)O)C(=O)O)NC(=O)[C@H](CO)NC(=O)[C@H](CO)NC(=O)[C@H](Cc1c[nH]cn1)NC(=O)[C@@H](NC(=O)[C@H](CC(C)C)NC(=O)[C@H](Cc1ccccc1)NC(=O)[C@H](CCC(=O)O)NC(=O)[C@H](C)NC(=O)[C@H](CC(C)C)NC(=O)[C@H](CCCNC(=N)N)NC(=O)[C@H](CCC(N)=O)NC(=O)[C@@H](NC(=O)[C@H](C)NC(=O)[C@@H]1CSSC[C@H](NC(=O)[C@@H](N)CCCCN)C(=O)N[C@@H](CC(N)=O)C(=O)N[C@@H]([C@@H](C)O)C(=O)N[C@@H](C)C(=O)N[C@@H]([C@@H](C)O)C(=O)N1)[C@@H](C)O)C(C)C)C(=O)N[C@@H](CC(C)C)C(=O)N1CCC[C@H]1C(=O)N1CCC[C@H]1C(=O)N[C@H](C(=O)N[C@@H](CC(N)=O)C(=O)N[C@H](C(=O)NCC(=O)N[C@@H](CO)C(=O)N[C@@H](Cc1c[nH]cn1)C(=O)N[C@H](C(=O)N[C@@H](Cc1ccc(O)cc1)C(N)=O)[C@@H](C)O)C(C)C)[C@@H](C)O` [Example 132, N-epsilon21-[2-(2-{2-[2-(2-{2-[(S)-4-Carboxy-4-(19-carboxyheptadecanoylamino)butyrylamino]ethoxy}ethoxy)acetylamino]ethoxy}ethoxy)acetyl]-[Glu14,Lys21,His35]-pramlintide] (H-KCNTATCATQRLAEFLVHSSK([AEEA-AEEA-γGlu-C20 diacid])NFGPILPPTNVGSHTY-NH2; disulfide 2-7), the solubility reads like this: under setting [1], greater than 200 µM; under setting [8], greater than 200 µM; under setting [2], greater than 200 µM; under setting [3], greater than 200 µM; under setting [4], greater than 200 µM; under setting [5], 198 µM (≈ 940 µg/mL). In addition, the solubility by setting is: under setting [9], 142 µM (≈ 674 µg/mL); under setting [6], 142 µM (≈ 674 µg/mL); under setting [7], 169 µM (≈ 802 µg/mL); under setting [10], greater than 200 µM.
Regarding `CC[C@H](C)[C@H](NC(=O)[C@@H]1CCCN1C(=O)CNC(=O)[C@H](Cc1ccccc1)NC(=O)[C@H](CC(N)=O)NC(=O)[C@H](CCCCNC(=O)COCCOCCNC(=O)COCCOCCNC(=O)CC[C@H](NC(=O)CCCCCCCCCCCCCCCCCCC(=O)O)C(=O)O)NC(=O)[C@H](CO)NC(=O)[C@H](CO)NC(=O)[C@H](Cc1c[nH]cn1)NC(=O)[C@@H](NC(=O)[C@H](CC(C)C)NC(=O)[C@H](Cc1ccccc1)NC(=O)[C@H](CCC(=O)O)NC(=O)[C@H](C)NC(=O)[C@H](CC(C)C)NC(=O)[C@H](CCCNC(=N)N)NC(=O)[C@H](CCC(N)=O)NC(=O)[C@@H](NC(=O)[C@H](C)NC(=O)[C@@H]1CSSC[C@H](NC(=O)[C@@H](N)CCCCN)C(=O)N[C@@H](CC(N)=O)C(=O)N[C@@H]([C@@H](C)O)C(=O)N[C@@H](C)C(=O)N[C@@H]([C@@H](C)O)C(=O)N1)[C@@H](C)O)C(C)C)C(=O)N[C@@H](CC(C)C)C(=O)N1CCC[C@H]1C(=O)N[C@@H](CO)C(=O)N[C@H](C(=O)N[C@@H](CC(N)=O)C(=O)N[C@H](C(=O)NCC(=O)N[C@@H](CO)C(=O)N[C@@H](Cc1c[nH]cn1)C(=O)N[C@H](C(=O)N[C@@H](Cc1ccc(O)cc1)C(N)=O)[C@@H](C)O)C(C)C)[C@@H](C)O` [Example 127, N-epsilon21-[2-(2-{2-[2-(2-{2-[(S)-4-Carboxy-4-(19-carboxyheptadecanoylamino)butyrylamino]ethoxy}ethoxy)acetylamino]ethoxy}ethoxy)acetyl]-[Glu14,Lys21,Ser29,His35]-pramlintide] (H-KCNTATCATQRLAEFLVHSSK([AEEA-AEEA-γGlu-C20 diacid])NFGPILPSTNVGSHTY-NH2; disulfide 2-7), the solubility runs as follows: under setting [1], greater than 200 µM; under setting [8], greater than 200 µM; under setting [2], greater than 200 µM; under setting [3], greater than 200 µM; under setting [4], greater than 200 µM; under setting [5], greater than 200 µM. Also, the solubility under setting [9] was greater than 200 µM, the solubility under setting [6] was greater than 200 µM, the solubility under setting [7] is greater than 200 µM and the solubility under setting [10] was greater than 200 µM.
For `CC[C@H](C)[C@H](NC(=O)[C@@H]1CCCN1C(=O)CNC(=O)[C@H](Cc1ccccc1)NC(=O)[C@H](CC(N)=O)NC(=O)[C@H](C)NC(=O)[C@H](CO)NC(=O)[C@H](CO)NC(=O)[C@H](Cc1c[nH]cn1)NC(=O)[C@@H](NC(=O)[C@H](CC(C)C)NC(=O)[C@H](Cc1ccccc1)NC(=O)[C@H](CCC(=O)O)NC(=O)[C@H](C)NC(=O)[C@H](CC(C)C)NC(=O)[C@H](CCCNC(=N)N)NC(=O)[C@H](CCC(N)=O)NC(=O)[C@@H](NC(=O)[C@H](C)NC(=O)[C@@H]1CSSC[C@H](NC(=O)[C@H](CCCCN)NC(=O)COCCOCCNC(=O)COCCOCCNC(=O)CC[C@H](NC(=O)CCCCCCCCCCCCCCCCCCC(=O)O)C(=O)O)C(=O)N[C@@H](CC(N)=O)C(=O)N[C@@H]([C@@H](C)O)C(=O)N[C@@H](C)C(=O)N[C@@H]([C@@H](C)O)C(=O)N1)[C@@H](C)O)C(C)C)C(=O)N[C@@H](CC(C)C)C(=O)N1CCC[C@H]1C(=O)N1CCC[C@H]1C(=O)N[C@H](C(=O)N[C@@H](CC(N)=O)C(=O)N[C@H](C(=O)NCC(=O)N[C@@H](CO)C(=O)N[C@@H](Cc1c[nH]cn1)C(=O)N[C@H](C(=O)N1CCC[C@H]1C(N)=O)[C@@H](C)O)C(C)C)[C@@H](C)O` [Example 178, N-alpha-[2-(2-{2-[2-(2-{2-[(S)-4-Carboxy-4-(19-carboxyheptadecanoylamino)butyrylamino]ethoxy}ethoxy)acetylamino]ethoxy}ethoxy)acetyl]-[Glu14,Ala21,His35,Pro37]-pramlintide] ({C20 diacid-γGlu-AEEA-AEEA}-KCNTATCATQRLAEFLVHSSANFGPILPPTNVGSHTP-NH2; disulfide 2-7), the solubility under setting [1] was greater than 200 µM; the solubility under setting [8] is greater than 200 µM; the solubility under setting [2] was greater than 200 µM; the solubility under setting [3] is greater than 200 µM; the solubility under setting [4] is greater than 200 µM; the solubility under setting [5] is greater than 200 µM. Further, the solubility is greater than 200 µM under setting [9], greater than 200 µM under setting [6], greater than 200 µM under setting [7] and greater than 200 µM under setting [10].

A word on the solubility: it is how much of the substance goes into solution per volume.
